Converted amounts (≈) assume the structure as drawn.
How the values were obtained:
[1] = test system: S. aureus (ATCC #29213) cells; assay: Membrane depolarization assay (DiOC2(3), flow cytometry); format: cell-based; conditions: 6 μg/mL, 15 minutes
Procedure: S. aureus (ATCC #29213) cells were grown to log phase (14 h) in Mueller Hinton Broth cation-adjusted (MHB50) and were diluted to 0.07 OD600 with media. One mL aliquots were transferred to 1.5 mL centrifuge tubes and treated with the following in triplicate: 10 μL DMSO (control), 10 μL of 600 μg/mL ecteinamycin, 10 μL of 3.2 mg/mL ecteinamycin (1), 10 μL of 500 μM carbonyl cyanide m-chlorophenythydrazone (CCCP), and 10 μL of 3.2 mg/mL rifampicin. Additionally, each tube received 10 μL of 3 mM DiOC2(3) (3,3′-diethyloxacarbocyanine iodide). The tubes were shaken for 15 minutes at room temperature. The cells were then analyzed with a FACSCalibur (BD Biosciences) flow cytometer and CellQuestPro software (BD Biosciences). Collected data represent the geometric means of fluorescence of 40,000 gated events.
Flow cytometry was used to determine if ecteinamycin, like other polyether ionophore antibiotics, depolarizes cell membranes. 3,3′-diethyloxacarbocyanine iodide (“DiOC2(3)”) fluoresces green in bacterial cells but shifts to red when the cell membrane is depolarized. Therefore, the ratio of red to green fluorescence is indicative of the membrane potential. S. aureus ATCC […] cells were treated with ecteinamycin at concentrations of 6 and 32 μg/mL.
All cells except the DMSO negative control were treated with DiOC2(3) and analyzed by flow cytometry. […]

[2] = Lethality of intravenous injection in mice; format: in vivo; conditions: 5 mg/kg IV
Procedure: Eight-to-nine-week-old FVB female mice weighing 20.5 to 25.6 g were used for all studies. Animals were maintained in accordance with the American Association for Accreditation of Laboratory Care criteria. Animal studies were approved by the University of Wisconsin Animal Care Committee.
Ecteinamycin was formulated with polyethylene glycol (PEG) 300, 25 mM Tris (1:1), pH 8.9. Mice were treated orally at 5 mg/kg or by retro-orbital intravenous injection at 2.5 mg/kg. Retro-orbital intravenous injection at 5 mg/kg was lethal. After 30 mins and 1 h, approximately 400 μL of blood was collected from the chest cavity in BD microtainer tubes with lithium heparin. Blood was centrifuged at 10,000 rpm for 10 mins Fifty μL of supernatant was added to 200 μL of acetonitrile (containing 0.1% formic acid) in a new polypropylene tube, vortexed for 1 min, and centrifuged for 10 mins at 14,000 rpm at 4° C. One hundred μL was transferred to a 96 well polypropylene microplate, 100 μL of H2O was added, and the plate was covered and shaken for 1 min and placed in the autosampler for analysis. […] Sample quantitation was determined by weighted (R^2) linear regression using a 9-point curve. […] The % oral bioavailability was calculated from the concentration of ecteinamycin (adjusted for dose) in plasma between oral and IV dose: [ecteinamycinoral]/[ecteinamycinIV]×100. […]

[3] = test system: MSSA (ATCC #29213); assay: MIC, dilution antimicrobial susceptibility test; format: cell-based, Methicillin-sensitive Staphylococcus aureus; conditions: Methicillin-sensitive Staphylococcus aureus (MSSA); 33° C., 18 h; read-out: MIC
Procedure: (§1) Ecteinamycin was tested for antibacterial activity against C. difficile (ATCC BAA-1870), MRSA (ATCC #33591), MSSA (ATCC #29213), E. coli (ATCC #25922), P. aeruginosa (ATCC #27853), and VRE (ATCC), and MICs were determined using a dilution antimicrobial susceptibility test for aerobic (MRSA, MSSA, E. coli, P. aeruginosa, and VRE) and anaerobic (C. difficile) bacteria. Ecteinamycin was dissolved in DMSO, serially diluted to 10 concentrations (0.0313-32 μg/mL), and tested in a 96-well plate. […] Ecteinamycin and vancomycin were tested in triplicate. Six untreated media controls were included on each plate. For MRSA, MSSA, E. coli, and P. aeruginosa, the plates were incubated at 33° C. for 18 h. For C. difficile, the plate was incubated at 36° C. for 48 h anaerobically and then read visually using a mirror apparatus. All manipulations to the plate were done inside the anaerobe chamber. The MIC was determined as the lowest concentration that inhibited visible growth.

[4] = test system: MRSA (ATCC #33591); assay: MIC, dilution antimicrobial susceptibility test; format: cell-based, Methicillin-resistant Staphylococcus aureus; conditions: Staphylococcus aureus, 18 h
Procedure: as §1

[5] = test system: VRE (ATCC); assay: MIC, dilution antimicrobial susceptibility test; format: cell-based, Vancomycin-resistant Enterococcus; conditions: Enterococcus
Procedure: as §1

[6] = test system: S. cerevisiae; assay: MIC against S. cerevisiae; format: cell-based; conditions: Saccharomyces cerevisiae
[7] = test system: C. difficile (ATCC BAA-1870); assay: MIC, anaerobic dilution antimicrobial susceptibility test; format: cell-based; conditions: Clostridioides difficile
Procedure: as §1

Q: For C=C1OC(=O)C(C(=O)CC2OC(C(C)C(O)C(CC)C(=O)C(C)(O)C3CCC(CC)(C4CCC(O)(C(C)OC)C(C)O4)O3)C(C)CC2C)=C1O (centres unmarked) [ecteinamycin], which “membrane depolarization (ratio of red to green fluorescence)” value [1] is on record?
A: demonstrated membrane depolarization

Q: What about the “lethality of retro-orbital intravenous injection” value [2] of the same compound?
A: lethal

Q: What about the MIC [3] of the same compound?
A: 0.125 µg/mL (≈ 0.176 µM)

Q: And the MIC [4]?
A: 0.125 µg/mL (≈ 0.176 µM)

Q: What about the MIC [5] of the same compound?
A: 0.25 µg/mL (≈ 0.353 µM)

Q: What about the MIC [6] of the same compound?
A: 8 µg/mL (≈ 11.3 µM)

Q: And the MIC ([7]; ATCCBAA1870)?
A: ≤ 0.031 µg/mL

Q: And the MIC ([7]; ATCCBAA1870, 36° C., 48 h anaerobically)?
A: ≤ 0.0313 µg/mL

— patent US10660874B2, “Ecteinamycin, compositions and uses thereof” (Wisconsin Alumni Research Foundation, priority 2014, dated 2020)
